Results on one molecule are retold here after patent US6803195B1, “Facile detection of cancer and cancer risk based on level of coordination between alleles” (Ramot At Tel-Aviv University Ltd., priority 1999, dated 2004).

Test [1] concerns CON samples (healthy individuals). The test is described as follows: FISH replication assay, cultures of healthy individuals (CON) with chromatin modifiers (Example 10). The class given is cell-based, human. As to conditions: for frequency (%) of SD cells, Mean: CON + AZA (10^-7M), N = 20. An excerpt: Cultures were set up from 44 healthy individuals (hereafter called CON) and 20 hematological malignancy patients at diagnosis (hereafter termed CAD). For 20 of the CON samples and all of the CAD samples peripheral in addition to the setting up cultures in the regular growth medium, cultures were set up in medium containing 5-azacytidine (10^−7M; Sigma, USA; hereafter referred to as AZA) a demethylating agent. In addition, cultures from 6 CON and 10 CAD samples were set up in medium containing a deacetylating agents, either Trichostatin A (33 nM; Sigma, USA; hereafter referred to as TSA) or Sodium Butirate (1 nM; Sigma, USA; hereafter referred to as NB), two well described acetylating agents.
These samples were hybridized with two commercial probes: the AML1 probe (LSI 21, […]) and the α-satellite probe specific for centromere 17 (32-130017, hereafter marked as CEN17). The results are summarized in Table 1 giving the number of samples hybridized with each probe (N), Mean and standard deviation (stdev) as well as the p value obtained using two tailed student's t-test (Microsoft Office 98).

In test [2] the test system is lymphocytes of control subjects (BPH). The test is described as follows: FISH replication assay, lymphocytes of benign prostate hyperplasia (BPH) subjects grown with 5-azacytidine (Example 7). Type of test: cell-based, human. The note with it: BPH samples; all tested loci; 10^-7M AZA. The procedure:
Each sample was set up for short-term culturing in F10 medium supplemented with 20% fetal calf serum (FCS), 3% phytohemagglutinin (PHA), 0.2% heparin, and 1% antibiotics (a standard solution of penicillin and streptomycin). Cultures were incubated at 37° C. for 72 hours and then colchicine (final concentration 0.1 μg/ml) was added to the culture for one hour, followed by hypotonic treatment (0.075 M KC1 at 37° C. for 15 minutes) and four washes each with a fresh cold 3:1 methanol: acetic acid solution. The cell suspensions were stored at −20° C. until used for fluorescence in situ hybridization (FISH). […]
Slides were analyzed blindly on an Olympus BH2 fluorescent microscope, using a triple band-pass filter (Chroma technology). […] For each sample and for each treatment the frequency of SD, SS and DD cells out of the total population of cells containing two fluorescent signals was recorded (for details please see Dotan et al, Genes, Chromosomes & Cancer 27:270-277, 2000). For the determination of allelic losses at least 200 cells from the same preparation used for replication studied were analyzed for each tested sample.

`Nc1ncn([C@@H]2O[C@H](CO)[C@@H](O)[C@H]2O)c(=O)n1` [AZA, 5-azacytidine]: the “frequency (%) of SD cells, Mean” value in test [1] (AML1 locus) is on record as “Mean = 21.5%”; in test [1] (CEN17 locus) it was “Mean = 20.9%”. In addition, in test [1] (cultured cells with chromatin modifier), the “replication pattern observed in normal genomes” value is recorded as “not affecting”. Besides, the “effect of AZA on the SD values” in test [2] is given as “no significant effect”.
